{"source": "ChEMBL document CHEMBL4385605", "about": "“Synthesis and Structure-Affinity Relationships of Spirocyclic Benzopyrans with Exocyclic Amino Moiety” (J Med Chem, 2019)", "key": {"[1]": {"target": "Sigma non-opioid intracellular receptor 1 (Rattus norvegicus) (UniProt Q9R0C9)", "sequence (Q9R0C9 whole entry)": "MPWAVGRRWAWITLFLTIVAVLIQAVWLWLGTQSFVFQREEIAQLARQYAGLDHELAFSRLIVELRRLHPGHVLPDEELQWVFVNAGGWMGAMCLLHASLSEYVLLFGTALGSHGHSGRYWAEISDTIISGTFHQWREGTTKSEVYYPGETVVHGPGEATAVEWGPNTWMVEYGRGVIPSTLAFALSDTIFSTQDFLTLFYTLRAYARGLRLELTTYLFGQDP", "assay": "Agonist activity at sigma 1 receptor in rat PC12 cells assessed as effect on KCl-induced intracellular calcium flux by fura-2-AM dye based fluorescence assay", "type": "cell-based"}, "Cytochrome P450 1A2": {"target": "T1, Cytochrome P450 1A2 (Homo sapiens, UniProt P05177)", "T1 sequence (P05177 whole entry)": "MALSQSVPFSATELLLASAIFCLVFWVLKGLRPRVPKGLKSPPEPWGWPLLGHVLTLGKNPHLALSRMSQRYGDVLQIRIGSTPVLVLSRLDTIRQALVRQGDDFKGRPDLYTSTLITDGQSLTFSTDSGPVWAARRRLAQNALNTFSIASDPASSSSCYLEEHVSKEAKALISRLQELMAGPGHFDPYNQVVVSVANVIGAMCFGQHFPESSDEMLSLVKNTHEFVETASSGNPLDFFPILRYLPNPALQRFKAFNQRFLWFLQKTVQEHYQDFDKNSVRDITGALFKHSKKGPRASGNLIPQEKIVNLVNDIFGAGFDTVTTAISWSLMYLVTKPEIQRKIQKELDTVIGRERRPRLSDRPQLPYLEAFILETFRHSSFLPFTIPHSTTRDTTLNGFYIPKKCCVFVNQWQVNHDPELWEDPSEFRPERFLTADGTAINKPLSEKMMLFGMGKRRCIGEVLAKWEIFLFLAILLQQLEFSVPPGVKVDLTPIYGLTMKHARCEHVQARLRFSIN", "assay": "Inhibition of recombinant human CYP1A2 at 1 uM by fluorescence assay", "type": "ADME", "settings": "recombinant enzyme"}, "[2]": {"assay": "Metabolic stability in human liver microsomes assessed as parent compound remaining at 1 uM in the presence of NADPH regenerating system after 60 mins by UPLC/MS analysis", "type": "ADME, Microsome", "settings": "read-out: Stability"}, "[3]": {"target": "Delta-type opioid receptor (Rattus norvegicus, UniProt P33533)", "sequence (P33533 whole entry)": "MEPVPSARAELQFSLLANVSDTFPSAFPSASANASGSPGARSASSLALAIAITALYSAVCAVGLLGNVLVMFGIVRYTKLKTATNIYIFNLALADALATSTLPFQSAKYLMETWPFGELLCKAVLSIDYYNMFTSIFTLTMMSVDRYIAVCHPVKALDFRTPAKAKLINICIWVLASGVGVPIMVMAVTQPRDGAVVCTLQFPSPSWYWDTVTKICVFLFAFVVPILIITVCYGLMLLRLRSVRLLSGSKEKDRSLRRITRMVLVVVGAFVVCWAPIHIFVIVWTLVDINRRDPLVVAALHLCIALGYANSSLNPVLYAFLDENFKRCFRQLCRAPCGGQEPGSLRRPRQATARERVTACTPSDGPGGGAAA", "assay": "Displacement of [3H]DPDPE from delta opioid receptor in rat membranes after 120 mins by scintillation counting analysis", "type": "cell membranes"}, "[4]": {"target": "Sodium-dependent dopamine transporter (Homo sapiens) (UniProt Q01959)", "sequence (Q01959 whole entry)": "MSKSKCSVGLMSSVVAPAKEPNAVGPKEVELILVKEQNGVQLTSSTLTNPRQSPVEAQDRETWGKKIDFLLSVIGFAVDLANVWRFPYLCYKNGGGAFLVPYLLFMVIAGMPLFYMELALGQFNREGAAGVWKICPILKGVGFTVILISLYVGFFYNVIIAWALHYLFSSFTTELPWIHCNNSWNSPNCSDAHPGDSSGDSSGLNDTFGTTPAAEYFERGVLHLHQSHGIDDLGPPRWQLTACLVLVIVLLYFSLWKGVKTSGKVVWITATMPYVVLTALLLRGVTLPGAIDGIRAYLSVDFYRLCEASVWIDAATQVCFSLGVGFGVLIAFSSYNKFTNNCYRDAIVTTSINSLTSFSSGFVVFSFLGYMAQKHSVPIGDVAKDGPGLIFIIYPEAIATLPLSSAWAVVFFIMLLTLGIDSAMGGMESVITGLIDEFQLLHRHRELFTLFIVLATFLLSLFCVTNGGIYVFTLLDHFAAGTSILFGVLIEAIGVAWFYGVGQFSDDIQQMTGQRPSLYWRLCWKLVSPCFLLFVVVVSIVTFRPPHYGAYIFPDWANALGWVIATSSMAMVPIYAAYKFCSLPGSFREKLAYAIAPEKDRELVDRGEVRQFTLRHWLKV", "assay": "Binding affinity to dopamine transporter (unknown origin) at 1 uM"}, "Mu-type opioid receptor": {"target": "Mu-type opioid receptor (Cavia porcellus, UniProt P97266)", "sequence (P97266 whole entry)": "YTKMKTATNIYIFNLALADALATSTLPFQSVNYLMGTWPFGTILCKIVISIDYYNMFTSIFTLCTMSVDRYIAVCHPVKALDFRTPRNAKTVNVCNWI", "assay": "Displacement of [3H]DAMGO from mu opioid receptor in guinea pig brain membranes after 120 mins by scintillation counting analysis", "type": "cell membranes"}, "Sus scrofa": {"species_on_record": "Sus scrofa", "assay": "Displacement of [3H]-(+)-MK-801 from PCP binding site of NMDA receptor in pig brain cortex membranes up to 1 uM after 120 mins by scintillation counting analysis", "type": "cell membranes"}}, "note": "Activity calls are given as the source filed them. No cut-off for these calls is given here."}
{"compound": "COC1Cc2ccccc2[C@]2(CC[C@H](N(C)CC3CCCCC3)CC2)O1", "note": "(some centres not stated)", "values": [{"measurement": "Activity", "setting": "[1]", "value": "inactive"}, {"measurement": "inhibition (INH)", "setting": "Cytochrome P450 1A2", "value": "Not Active"}, {"measurement": "remaining at 1 h, 1 µM", "setting": "[2]", "value": "> 50", "unit": "%"}, {"measurement": "Ki", "setting": "[3]", "value": 364, "unit": "nM"}, {"measurement": "Activity", "setting": "[4]", "value": "inactive"}, {"measurement": "Ki", "setting": "Mu-type opioid receptor", "value": 391, "unit": "nM"}, {"measurement": "Activity", "setting": "Sus scrofa", "value": "inactive"}]}
